Reference: publication PMC2213507 (The Journal of Experimental Medicine, 2000)
Peptide text beside a SMILES is read from it.

Target: HLA-A*0201 (Homo sapiens, UniProt P04439, D140Y/D185E/D98H/E176V/E277Q/G131W/G231S/I119V/I121R/I166T/I218V/L300P/L318F/N151K/N90K/P208A/P217A/Q86G/Q94H/R138H/R169H/T345S)
Experiment: HLA-A*0201 peptide-binding assay

Row | Compound | IC50 [nM]
1 | CC(C)C[C@H](NC(=O)[C@H](CO)NC(=O)[C@H](CCCNC(=N)N)NC(=O)[C@@H](NC(=O)[C@H](Cc1ccc(O)cc1)NC(=O)[C@H](COP(=O)(O)O)NC(=O)[C@H](CC(=O)O)NC(=O)[C@H](CC(C)C)NC(=O)CN)C(C)C)C(=O)O [GLDpSYVRSL] (HELM PEPTIDE1{G.L.D.[O=C([C@H](COP(=O)(O)O)N[*:1])[*:2]].Y.V.R.S.L}$$$$V2.0) | 58
2 | CC(C)C[C@H](NC(=O)[C@H](CO)NC(=O)[C@H](CCCNC(=N)N)NC(=O)[C@@H](NC(=O)[C@H](Cc1ccc(O)cc1)NC(=O)[C@H](Cc1ccc(OP(=O)(O)O)cc1)NC(=O)[C@H](CC(=O)O)NC(=O)[C@H](CC(C)C)NC(=O)CN)C(C)C)C(=O)O [GLDpYYVRSL] (HELM PEPTIDE1{G.L.D.[O=C([C@H](Cc1ccc(OP(=O)(O)O)cc1)N[*:1])[*:2]].Y.V.R.S.L}$$$$V2.0) | 211
3 | CC(C)C[C@H](NC(=O)[C@H](CO)NC(=O)[C@H](CCCNC(=N)N)NC(=O)[C@@H](NC(=O)[C@H](Cc1ccc(O)cc1)NC(=O)[C@@H](NC(=O)[C@H](CC(=O)O)NC(=O)[C@H](CC(C)C)NC(=O)CN)[C@@H](C)OP(=O)(O)O)C(C)C)C(=O)O [GLDpTYVRSL] (HELM PEPTIDE1{G.L.D.[C[C@@H](OP(=O)(O)O)[C@H](N[*:1])C(=O)[*:2]].Y.V.R.S.L}$$$$V2.0) | 67
